The subject of assay [1] is MDA-MB-231 triple-negative breast cancer cell line. As to the kind of experiment: MTT assay, co-treatment of peptide with anticancer agent. It is filed as cell-based. Conditions: for cell proliferation on co-treatment with paclitaxel compared to paclitaxel alone: MDA-MB-231, 1 μM peptide + 5.4 nM paclitaxel (FIGS. 3 and 4). How it is done: To confirm the cytotoxic and anti-proliferative effect of a peptide discovered in the present invention on cancer cells and normal cells, a 3-(4,5-diemthylthiazolyl-2)-2,5-diphenyltetrazolium bromide (MTT) assay was performed. The MTT assay is a method of measuring the growth of living cells and measuring cell viability using MTT reduction by mitochondrial reductase in living cells.
In addition, peptides and anticancer agents were administered together to the MDA-MB-231 triple-negative breast cancer cell line to explore effects associated with drug co-administration and drug resistance. Triple-negative (ER−/PR−/HER2−) breast cancer is a type of breast cancer that is difficult to treat because it is known to have drug resistance to existing hormone therapy and anticancer drugs, and is a suitable model for research on drug resistance and co-administration.
Cell viability was evaluated by an MTT assay by treating MDA-MB-231 cells with 1 μM of the peptide (No. 1 or 2), and 9 μM abemaciclib or 5.4 nM paclitaxel.

Assay [2] relates to matrix metallopeptidase 9 (MMP-9). As to the kind of experiment: MMP-9 expression by RT-PCR. The assay is classed as cell-based. Particulars: MDA-MB-231, 1 μM peptide, 24 hours, vs control (FIG. 6). On the procedure:
MDA-MB-231 cells were cultured and treated with 1 μM of a peptide (No. 1 or 2). After 24 hours, RNA was isolated from the cells and the expression level of matrix metallopeptidase 9 (MMP-9), which is a key cell migration factor, was confirmed through RT-PCR.

Assay [3] concerns extracellular signal-regulated kinase (ERK) protein. As to the kind of experiment: p-ERK level by Western blot. The assay is classed as cell-based. Particulars: MDA-MB-231, 1 μM peptide, 24 hours, vs control (FIG. 7). How it is done: In addition, the change in phosphorylation of extracellular signal-regulated kinase (ERK) protein caused by an anticancer peptide was confirmed. ERK gene is an indicator of drug resistance and inhibition of the growth and apoptosis of cancer cells. The MDA-MB-231 cells were cultured and treated with 1 μM of a peptide (No. 1 or 2). After 24 hours, proteins were isolated from the cells, and a p-ERK level was confirmed by Western blot.

The test system of another assay is lamin B1 protein. As to the kind of experiment: Lamin B1 cleavage by western blotting (apoptosis marker). The assay is classed as cell-based. Particulars: MDA-MB-231, 1 μM peptide, 24 hours, nuclear fraction western blotting (FIG. 8). How it is done: Next, to confirm the relationship between the anticancer peptide and apoptosis, the degree of cleavage of lamin B1 protein was confirmed. Lamin B1 is originally a type of nuclear protein that is degraded by caspase in apoptosis and used as a biomarker of apoptosis. The MDA-MB-231 cells were cultured and treated with 1 μM of a peptide (No. 1 or 2). After 24 hours, the cells were washed with PBS twice, and lysed with lysis buffer containing NP-40. The nucleus and cytoplasm were separated by centrifugation, and western blotting was performed on each nuclear and cytoplasmic fraction. Here, to determine the degree of separation of the nucleus and cytoplasm, α-tubulin, which is a cytoplasmic marker, and lamin B1 were simultaneously analyzed.
In general terms: In western blotting, separated proteins are transferred to a membrane and probed.

For assay [4], the system named is MDA-MB-231 xenograft tumor. In words: Xenograft tumor model, tumor size. Particulars: 2.5 mg/kg intraperitoneally daily, 6 weeks, vs PBS control (FIG. 9). It is filed as in vivo, BALB/c nude mice. How it is done:
A xenograft tumor model was constructed by injecting MDA-MB-231 cells into immunodeficient BALB/c nude mice and forming tumors for 1 week. Mice with tumors were randomly divided into a control and an experimental group. The control and the experimental group were intraperitoneally injected daily with PBS (the same volume as a peptide) and the No. 1 peptide (2.5 mg/kg), respectively, and then observed for a total of 6 weeks. During the experimental period, a tumor size was measured with a digital caliper every week, and the final tumor size was compared at week 6.

Take “EKAEEDRYFR (listed as Mus musculus) [No. 1]”: in assay [1], the “cell proliferation on co-treatment with paclitaxel compared to paclitaxel alone” value is reported as “further inhibited”. In addition, the “expression of MMP-9” value in assay [2] was “significantly reduced”. For the same sequence, the p-ERK level result in assay [3] is given as “significantly reduced”. For the same sequence, the “cleavage of lamin B1 protein” value in the assay with lamin B1 protein is “cleaved”. Further, the “tumor growth (tumor size)” value in assay [4] is reported as “significant tumor growth inhibitory effect”.

Regarding “EQAEEERYFR (listed as Homo sapiens) [No. 2]”, in assay [1], the “cell proliferation on co-treatment with paclitaxel compared to paclitaxel alone” value is on record as “further inhibited”. In assay [1] (MDA-MB-231, 1 μM peptide + 9 μM abemaciclib (FIG. 4)), the “cell proliferation on co-treatment with abemaciclib compared to abemaciclib alone” value was “further inhibited”. The “expression of MMP-9” value in assay [2] was “significantly reduced”. In addition, the p-ERK level result in assay [3] was “significantly reduced”. In addition, in the assay with lamin B1 protein, the “cleavage of lamin B1 protein” value was “cleaved”.

These data come from patent US20240293500A1, “PEPTIDE HAVING ANTICANCER ACTIVITY, AND USE THEREOF” (Korea University Research and Business Foundation, priority 2021, published 2024).
